Assay results: ChEMBL document CHEMBL1201862, “PubChem BioAssay data set” (2004)
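Values below derive from 48-hour exposures of cells grown in 96-well plates, with endpoints linearly interpolated between the two concentrations bracketing the appropriate inhibition level. At the GI50, growth is halved.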 The source made the active and inactive calls. Cut-off read from the data, not from the text of the source: active = GI50 up to about 1.1 µM and inactive = higher.

How the values were obtained:
Test in all cases: growth of human tumour cells (NCI), 48 h
[1] = tested on: U-251
[2] = tested on: KM12
[3] = tested on: K562
[4] = tested on: Malme-3M
[5] = tested on: SK-MEL-28
[6] = tested on: MDA-MB-231
[7] = tested on: OVCAR-4
[8] = tested on: ACHN
[9] = tested on: Hs-578T
[10] = tested on: RPMI-8226
[11] = tested on: A498
[12] = tested on: SK-MEL-5
[13] = tested on: NCI-H460
[14] = tested on: CAKI-1
[15] = tested on: HCT-116
[16] = tested on: UO-31
[17] = tested on: HT-29
[18] = tested on: SR

Row | Structure (SMILES) | GI50 [1] | GI50 [2] | GI50 [3] | GI50 [4] | GI50 [5] | GI50 [6] | GI50 [7] | GI50 [8] | GI50 [9] | GI50 [10] | GI50 [11] | GI50 [12] | GI50 [13] | GI50 [14] | GI50 [15] | GI50 [16] | GI50 [17] | GI50 [18]
1 | COc1cccc2c1[C@H](OC)[C@]13O[C@@]1(C2=O)[C@H](O)[C@H](C)[C@@](O)(C(=O)[C@@H]1O[C@H]1C)[C@@H]3O | 0.303 µM (active) | 0.318 µM (active) | 0.259 µM (active) | 0.169 µM (active) | 0.23 µM (active) | 0.202 µM (active) | 0.208 µM (active) | 0.211 µM (active) | 0.235 µM (active) | 0.172 µM (active) | 0.253 µM (active) | 0.172 µM (active) |  |  |  |  |  | 
2 | O=C(O)[C@H](Cc1ccccc1)NCCN1CCC[C@H]1C(=O)O | > 100 µM (inactive) | > 100 µM (inactive) | 1.53 µM (inactive) | 49.8 µM (inactive) | > 100 µM (inactive) | > 100 µM (inactive) | 3.74 µM (inactive) |  |  | > 100 µM (inactive) | 42.6 µM (inactive) | > 100 µM (inactive) | 42.1 µM (inactive) | > 100 µM (inactive) | > 100 µM (inactive) | 32.4 µM (inactive) | 26.2 µM (inactive) | 
3 | OC1(C(Sc2cc(C(F)(F)F)cc(C(F)(F)F)c2)Sc2cc(C(F)(F)F)cc(C(F)(F)F)c2)C=CCCC1 (configuration not stated) |  | 1.73 µM (inactive) | 1.53 µM (inactive) | 2.77 µM (inactive) | 2.71 µM (inactive) |  | 1.74 µM (inactive) | 1.85 µM (inactive) | 2.95 µM (inactive) | 1.47 µM (inactive) | 1.35 µM (inactive) | 9.53 µM (inactive) | 1.33 µM (inactive) | 1.79 µM (inactive) | 2.12 µM (inactive) | 1.38 µM (inactive) | 1.08 µM (active) | 
4 | N#Cc1c(-c2ccc(Cl)cc2)c(C#N)c(=O)n(NS(=O)(=O)c2ccccc2)c1-c1ccccc1 | > 25 µM (inactive) |  | > 25 µM (inactive) |  | > 25 µM (inactive) | > 25 µM (inactive) | > 25 µM (inactive) | > 25 µM (inactive) |  | 17.2 µM (inactive) | > 25 µM (inactive) | > 25 µM (inactive) | > 25 µM (inactive) | > 25 µM (inactive) | > 25 µM (inactive) |  |  | 
5 | Cn1cnc([N+](=O)[O-])c1Sc1nncc2[nH]cnc12 | > 100 µM (inactive) | > 100 µM (inactive) | > 100 µM (inactive) | 28.8 µM (inactive) | > 100 µM (inactive) | > 100 µM (inactive) | > 100 µM (inactive) | > 100 µM (inactive) |  | > 100 µM (inactive) | > 100 µM (inactive) | > 100 µM (inactive) |  | > 100 µM (inactive) | > 100 µM (inactive) | > 100 µM (inactive) | > 100 µM (inactive) | > 100 µM (inactive)
6 | CC(=O)/C=C/CCC(=O)/C=C/C(=O)OC(CCC(=O)/C=C/C(=O)O)CC(C)=O (configuration not stated) | > 100 µM (inactive) | > 100 µM (inactive) | > 100 µM (inactive) | > 100 µM (inactive) | > 100 µM (inactive) | > 100 µM (inactive) | > 100 µM (inactive) | > 100 µM (inactive) |  | 54.7 µM (inactive) |  | > 100 µM (inactive) | > 100 µM (inactive) |  | > 100 µM (inactive) |  | > 100 µM (inactive) | 88.9 µM (inactive)
7 | CO[C@H]1/C=C/O[C@@]2(C)Oc3c(C)c(O)c4c(O)c(c(/C=N/N5CCN(C)CC5)c(O)c4c3C2=O)NC(=O)/C(C)=C\C=C\[C@H](C)[C@H](O)[C@@H](C)[C@@H](O)[C@@H](C)[C@H](OC(C)=O)[C@@H]1C [RIFAMPIN] |  | > 100 µM (inactive) | > 100 µM (inactive) | 37.5 µM (inactive) | > 100 µM (inactive) | 24.5 µM (inactive) |  | > 100 µM (inactive) |  | 52.1 µM (inactive) | > 100 µM (inactive) | 61.4 µM (inactive) | 45.8 µM (inactive) | > 100 µM (inactive) | 97.7 µM (inactive) | 68.4 µM (inactive) | 60 µM (inactive) | 3.32 µM (inactive)
8 | Cc1cn(C2CC(OP(=O)(O)OCC3OC(n4c[n+]([BH2-]C#N)c5c(=O)[nH]c(N)nc54)CC3O)C(CO)O2)c(=O)[nH]c1=O (configuration not stated) | > 100 µM (inactive) | > 100 µM (inactive) | > 100 µM (inactive) | > 100 µM (inactive) |  | > 100 µM (inactive) | > 100 µM (inactive) | > 100 µM (inactive) |  | > 100 µM (inactive) | > 100 µM (inactive) | > 100 µM (inactive) | > 100 µM (inactive) | > 100 µM (inactive) | > 100 µM (inactive) | > 100 µM (inactive) | > 100 µM (inactive) | > 100 µM (inactive)
9 | Cc1cn(Cc2ccccc2CCl)c(=O)[nH]c1=O | 7.94 µM (inactive) | 12.9 µM (inactive) | 4.72 µM (inactive) | 21.3 µM (inactive) | 19.4 µM (inactive) |  | 34.3 µM (inactive) | 12.6 µM (inactive) | 14.2 µM (inactive) |  |  | 7.4 µM (inactive) | 21.1 µM (inactive) | 10.4 µM (inactive) | 4.53 µM (inactive) | 11.6 µM (inactive) | 15.4 µM (inactive) | 
10 | Cc1ccc(S(=O)(=O)OI(O)CC(F)(F)F)cc1 | > 100 µM (inactive) | > 100 µM (inactive) | > 100 µM (inactive) |  | > 100 µM (inactive) | > 100 µM (inactive) | > 100 µM (inactive) | > 100 µM (inactive) |  | > 100 µM (inactive) | > 100 µM (inactive) | > 100 µM (inactive) | > 100 µM (inactive) | > 100 µM (inactive) | > 100 µM (inactive) | > 100 µM (inactive) | > 100 µM (inactive) | > 100 µM (inactive)
11 | Nn1c(S)nnc1CCCCCCCCc1nnc(S)n1N | > 100 µM (inactive) | > 100 µM (inactive) | > 100 µM (inactive) | > 100 µM (inactive) | > 100 µM (inactive) | > 100 µM (inactive) | > 100 µM (inactive) | > 100 µM (inactive) |  | > 100 µM (inactive) | > 100 µM (inactive) |  | > 100 µM (inactive) | > 100 µM (inactive) | > 100 µM (inactive) | > 100 µM (inactive) | > 100 µM (inactive) | > 100 µM (inactive)
12 | CCN1CCN(c2nc3ccccc3nc2C(=O)c2ccc(OC)cc2)CC1 | 39.4 µM (inactive) | 24.8 µM (inactive) | 43.9 µM (inactive) | 16.5 µM (inactive) | 36 µM (inactive) |  | 57.5 µM (inactive) | 27.8 µM (inactive) | 38.6 µM (inactive) | 7.19 µM (inactive) | 37.1 µM (inactive) | 37.2 µM (inactive) | 21.5 µM (inactive) | 39.8 µM (inactive) | 6.07 µM (inactive) | 19.7 µM (inactive) | 23.9 µM (inactive) | 11.7 µM (inactive)
13 | O=c1[nH]nc(-c2cccc(Br)c2)[nH]1 | > 100 µM (inactive) | > 100 µM (inactive) | > 100 µM (inactive) | > 100 µM (inactive) | > 100 µM (inactive) |  | > 100 µM (inactive) | > 100 µM (inactive) | 18.2 µM (inactive) | > 100 µM (inactive) | > 100 µM (inactive) | > 100 µM (inactive) | > 100 µM (inactive) | > 100 µM (inactive) | > 100 µM (inactive) | 94.2 µM (inactive) | > 100 µM (inactive) | > 100 µM (inactive)
14 | O=C(NC(CS)C(=O)O)c1c2ccccc2nc2ccccc12 (configuration not stated) | 75 µM (inactive) | 24.8 µM (inactive) | 40.2 µM (inactive) | 15.2 µM (inactive) | 74.1 µM (inactive) | 76.6 µM (inactive) | > 100 µM (inactive) | 21.3 µM (inactive) |  | 54.1 µM (inactive) | > 100 µM (inactive) | 3.28 µM (inactive) | 23.6 µM (inactive) | > 100 µM (inactive) | 13.6 µM (inactive) | 3.87 µM (inactive) | 14.5 µM (inactive) | > 100 µM (inactive)
15 | COC(=O)c1cc2ccc(N)nc2[nH]c1=O | > 100 µM (inactive) | > 100 µM (inactive) |  | > 100 µM (inactive) | > 100 µM (inactive) | > 100 µM (inactive) | > 100 µM (inactive) | > 100 µM (inactive) |  | > 100 µM (inactive) | > 100 µM (inactive) | > 100 µM (inactive) | > 100 µM (inactive) | > 100 µM (inactive) | > 100 µM (inactive) | > 100 µM (inactive) |  | 
16 | O=C(Nc1ccc(Cl)cc1)Oc1ccc(C(=S)Nc2ccc(Br)cc2)cc1 | 20.5 µM (inactive) | 2.55 µM (inactive) | 2.36 µM (inactive) | 20.2 µM (inactive) | 10.4 µM (inactive) |  | 7.4 µM (inactive) | 12.2 µM (inactive) | 57.1 µM (inactive) | 23.5 µM (inactive) | 19.1 µM (inactive) | 6.1 µM (inactive) | 4.85 µM (inactive) | 7.78 µM (inactive) | 10.3 µM (inactive) | 18.2 µM (inactive) | 2.19 µM (inactive) | 5.06 µM (inactive)
17 | CCOC(=O)C1(F)S(=O)(=O)OCCOS1(=O)=O | > 100 µM (inactive) | > 100 µM (inactive) |  | > 100 µM (inactive) | > 100 µM (inactive) |  | > 100 µM (inactive) | > 100 µM (inactive) | 93.3 µM (inactive) | > 100 µM (inactive) |  | > 100 µM (inactive) |  | > 100 µM (inactive) | > 100 µM (inactive) | > 100 µM (inactive) | > 100 µM (inactive) | > 100 µM (inactive)
